Measured values from patent US9655975B2, “Prodrug using nitroimidazole” (UNIVERSITY OF TSUKUBA, priority 2012, dated 2017).

Experiments:
Type in all cases: cell-based
[1] = tested on: cultured cells; experiment: Incubation of Compound 5 in cultured cells under low oxygen (Example 4), release of naphthylmethylamine by HPLC; settings: Compound 5 at 1 mM, 6 hours, 20% O2 vs 1% O2, HPLC, FIG. 2
Procedure: This example was carried out to confirm that Compound 5 is reduced in cells within a hypoxic environment, and that naphthylmethylamine is released by a subsequent intramolecular cyclization reaction.
A cell suspension prepared to a cell count of 1×10^4 cells/mL was dispensed into a 96-well plate, and the cells were cultured by 24 hours of incubation at 37° C. After 24 hours, the synthesized Compound 5 was added to the cells in an amount of 1 mM. Following addition, the cells were cultured for 6 hours each in a normal oxygen concentration incubator (20% O2) or at a low-oxygen work station (1% O2). The culture medium was then recovered, 50 μL of Trypsin/EDTA was added and 5 minutes of incubation was carried out, following which the cells were stripped away and added to the medium that was earlier recovered. Next, the recovered sample was freeze-dried overnight, 200 μL of acetonitrile was added, and 30 minutes of ultrasonic cleaning was carried out. In addition, dead cells were precipitated by centrifugal separation (3,000 rpm, 10 min), the supernatant was recovered, and the acetonitrile was removed with a centrifugal evaporator. Next, 200 μL of methanol (for LC/MS) was added to the Eppendorf tube used in centrifugation, the tube contents were passed through a filter (0.2 μm), and LC/MS measurement and high-performance liquid chromatography (HPLC) measurement were carried out. […]

[2] = tested on: Human pancreatic cancer cells (MIA PaCa-2); experiment: Incubation of Compound 5 in MIA PaCa-2 cells under low oxygen (Example 5), release by LC/MS; settings: Compound 5 at 10 μM, MIA PaCa-2, 20% O2 vs 0.1% O2, LC/MS, FIG. 3
Procedure: Human pancreatic cancer cells (MIA PaCa-2, acquired from Riken Cell Bank) were prepared as a suspension having a cell count of 1×10^4 cells/mL), and dispensed into a 96-well plate. After 24 hours, Compound 5 was added to a concentration of 10 μM and the cells were cultured, in a normal oxygen concentration incubator (20% O2) or at a low-oxygen work station (0.1% O2). After a given time had elapsed, the culture medium was recovered, trypsin was added and the cells were recovered. The recovered cells were disrupted by sonic treatment, the compound was extracted with acetonitrile, and analysis by LC/MS was carried out under the following conditions.
Column used: Lachrom Ultra C18 (particle size, 2 μm; 2 mm×50 mm) column
Measurement wavelength: 220 nm
Eluent A: 0.1% TFA-containing milliQ
Gradient: 95:5 (Eluent A:Eluent B)→95:5 (5 minutes)→30:70 (15 minutes)
By carrying out this measurement, the amount of compound released in a low-oxygen environment and the amount of compound released in a normal oxygen environment were compared.

[3] = tested on: Human pancreatic cancer cells (MIA PaCa-2); experiment: Evaluation of cell survival rate by WST assay, normal vs low oxygen (Example 7, Comparative Example)
Procedure: Human pancreatic cancer cells (MIA PaCa-2, acquired from Riken Cell Bank) were dispensed at a density of 5,000 cells/well and cultured for 24 hours in Dulbecco's modified Eagle medium (DMEM), following which Compound 7 was added to the specified concentration and 6 hours of culturing was carried out at a normal oxygen concentration (20%) or a low oxygen concentration (0.1%). After culturing, DMEM medium replacement was carried out, the compound was removed, and 48 hours of culturing was carried out in a normal oxygen concentration incubator, following which the cell survival rate was analyzed by a WST assay.
Compound 8 below, which is mentioned in WO 2009/018163 A1, was furnished for use. The cell survival rates were compared in tests conducted by the method described in Example 7 on both Compound 8 and a compound within the scope of this invention (aside from the fact that the corresponding linker was —CH2CH2C(═O)—, the manner of bonding between nitroimidazole and the drug was the same; Compound 7 of Example 6).

[4] = tested on: Human pancreatic cancer cells (MIA PaCa-2); experiment: Release of drug from prednisolone prodrug in low-oxygen environment (Example 16), LC/MS; settings: Compound 13 at a concentration of 10, one hour, 20% O2 vs 0.1% O2, LC/MS, FIG. 8
Procedure: Human pancreatic cancer cells (MIA PaCa-2, acquired from Riken Cell Bank) were prepared as a suspension having a cell count of 1×10^4 cells/mL), and dispensed into a 96-well plate. After 24 hours, Compound 13 was added to a concentration of 10 and the cells were cultured in a normal oxygen concentration incubator (20% O2) or at a low-oxygen work station (0.1% O2). One hour layer, the culture medium was recovered, trypsin was added, and the cells were recovered. The recovered cells were disrupted by sonic treatment and the compound was extracted with acetonitrile, following which analysis by LC/MS of the amount of prednisolone released was carried out under the following conditions.
Column used: TSKgel ODS-100Z (particle size, 3 μm; 2 mm×75 mm) column
Measurement wavelength: 250 nm
Eluent A: 0.1 M ammonium acetate
Gradient: 40:60 (Eluent A:Eluent B)→10:90 (20 minutes)
By carrying out this measurement, the amount of compound released in a low-oxygen environment was compared with the amount released in a normal oxygen environment.

O=C(CCn1ccnc1[N+](=O)[O-])NCc1cccc2ccccc12 [Compound 5, N-Naphthylmethyl-3-(2-Nitro-1H-Imidazolyl)propionylamide]
amount of naphthylmethylamine released in low-oxygen vs normal oxygen environment [1]: much naphthylmethylamine is released in a low-oxygen environment
amount of naphthylmethylamine released in low-oxygen vs normal oxygen environment [2]: much naphthylmethylamine is released in a low-oxygen environment

COc1cccc2c1C(=O)c1c(O)c3c(c(O)c1C2=O)CC(O)(C(=O)CO)CC3OC1CC(NC(=O)CCn2ccnc2[N+](=O)[O-])C(O)C(C)O1 (centres unmarked) [Compound 7]
cell survival rate at low oxygen concentration compared with normal oxygen concentration ([3]; 6 hours at 20% or 0.1% O2, then 48 hours normal oxygen, WST assay, FIG. 4): significantly lowers the survival rate of human pancreatic cancer cells at a low-oxygen concentration compared with a normal oxygen concentration
cytotoxicity compared with known Compound 8 ([3]; method of Example 7, MIA PaCa-2, FIG. 5): significantly higher cytotoxicity

C[C@]12C=CC(=O)C=C1CC[C@@H]1[C@@H]2[C@@H](O)C[C@@]2(C)[C@H]1CC[C@]2(O)C(=O)COC(=O)CCn1ccnc1[N+](=O)[O-] [Compound 13]
amount of prednisolone released in low-oxygen vs normal oxygen environment [4]: much prednisolone is released in a low-oxygen environment
